Data set [1] in a line: Oral administration of prodrugs to mice: colon, plasma, feces exposure. Format: in vivo. The conditions noted are these: mouse; for Prodrug levels in plasma after oral dosing / Prodrug plasma concentration, fold lower than active parent 1: dose equal to 30 mg/kg of 1; for Plasma versus colon levels of active parent 1 after oral prodrug: dose equal to 30 mg/kg of 1, 3 and 11 h. The protocol: (§1) Active Parent–Male CD1 mice (N = 3) received a single oral administration of compound 1 at 30 mg/kg prepared as a nanosuspension in 2% HPC-SL, 0.2% SDS in water and dosed at 10 ml/kg. Active Parent Prodrugs–Male CD1 mice or female C57BL/6 mice (N = 3) received a single oral adminstration of prodrug at 30 mg/kg active parent equivalent in either 10% Cremophor EL + 90% 1% Na-carboxymethylcellulose (NaCMC) at 10 ml/kg or as a nanosuspension in 2% HPC-SL, 0.2% SDS in water at 10 ml/kg.Blood samples were taken over 11 hours, and colon samples were taken at 3, 6 and/or 11 hours post dose. Mice received either Teklad Global Diet 2014 (Envigo Teklad, Madison, WI or LabDiet #5010 (LabDiet, St. Louis, MO).
(§2) Due to the inherent risk of fecal or PR-dosed material contaminating true levels of colon tissue exposure, careful flushing of colon tissue for drug analysis was required. Upon necropsy, a section of mouse colon was removed, and flushed with PBS until no visible fecal material was observed. Subsequently, a 1–2 cm section of colon was blotted dry, weighed and snap-frozen in liquid nitrogen.
(§3) Colon tissue (~50 mg) was diluted 10x in Veterinary Sterile Water for Irrigation (USP by Abbott), then 1.4 mm zirconium oxide beads were added and tissue was homogenized using an Omni Bead Ruptor 24 (Omni International, Kennesaw, GA). Aliquots of colon homogenate samples and a set of colon standards were pipetted in 96-well plates and subjected to protein precipitation extraction (with acetonitrile + internal standard) on a Microlab Star robot (Hamilton Robotics, Reno, NV). Plates were then mixed on a MixMate (Eppendorf, Hamburg, Germany) for 1 min at 1600 rpm and centrifuging for 5 min at 4000 rpm in 5810 R Centrifuge (Eppendorf, Hamburg, Germany). Supernatant was transferred into new plates and diluted with LC-MS/MS mobile phase.
(§4) Spiked standards were prepared in the appropriate matrices. All unknown samples and spiked standards were combined with acetonitrile containing internal standard, vortexed, and centrifuged to pellet the proteins. Supernatants were used for subsequent analysis by LC-MS/MS. The mobile phase consisted of acetonitrile with 0.1% formic acid, and water with 0.1% formic acid at a flow rate of 0.8 mL/min. Analytes were separated using reverse phase chromatography with a fast gradient on a 30 x 2.1 mm Fortis C18 Pace […] column, prior to analysis on a Sciex API5500™ mass spectrometer. Peak areas were determined using Sciex Analyst™ 1.6 software. Actual concentrations were calculated by regression analysis of the peak area ratio (parent / internal standard) of the spiked standards versus concentration.

Data set [2] relates to Mouse bone marrow derived macrophages (BMDM). As to the kind of experiment: Mouse macrophage differentiation assay (CSF-induced). Type of data set: cell-based. The protocol:
Mouse bone marrow derived macrophages (BMDM) were isolated as previously described[53] from C57BL/6 female mice. The isolated cells were washed using standard growth medium (RPMI (Gibco cat# 11875–093) with 2 mM L-glutamine (Gibco cat# 25033), 1% Pen/Strep (Gibco cat# 15140), 10% heat inactivated fetal bovine serum (HI-FBS, Gibco cat# 10438), and 0.1% beta-mercaptoethanol (BME, Gibco cat# 21985–023)), and filtered through a […] cell strainer (Falcon cat# 352360). Cells were counted, re-suspended in growth medium, and plated at 1x10^5 viable cells per well in a 96 well plate (Corning cat# 3603). Inhibitors were added at various concentrations to the cells, and incubated at 37°C/5% CO2 for 30 minutes. Recombinant mouse macrophage colony stimulating factor (M-CSF, R&D cat# 416-ML-010) was added to the plates at a final concentration of […]. Plates were transferred to a 37°C/5% CO2 incubator for 5 days. On the fifth day, supernatant was removed from each well and Cell Titer Glo (Promega cat#G7571) was added. Plates were covered from the light and incubated at room temperature for 10 minutes before reading the luminescence on an EnVision plate reader (PerkinElmer).

Data set [3] is described as follows: Per rectal versus oral dosing of active parent: colon, liver, plasma exposure. To be noted: mouse. Type of data set: in vivo. The protocol: Prior to dosing, mice were anaesthetized with Isoflurane and fecal material was removed from colons by irrigating with 0.5 mL of PBS using a syringe fitted with a 22 gauge flexible gavage needle. After a 20 min wake up period, mice were again anesthetized and drug was administered in a volume of 0.1–0.2 mL using a syringe fitted with a 22 gauge flexible gavage needle. Mice were then placed in the anesthesia chamber for 40 min in a supine position with hind end elevated to ensure drug remained in colon. After 40 min, mice were removed from the chamber and blood sampling over time (via tail nick) began.
as §1, §2, §3, §4

A short description of a further data set: PAMPA permeability. Type of data set: in vitro ADME.
Data set [4] in a line: Pharmacokinetic studies of active parent in mice. Type of data set: in vivo. To be noted: mouse; for clearance: male, CD1, blood, read-out: Blood Clearance (total clearance) (converted); for clearance / Blood Clearance (unbound clearance, CLb/fub): 1 mg/kg IV, N = 2–3; for FaFg: 1 mg/kg, F/Fh (compound 6) or AUCoral/AUCip. The protocol: Male CD1 mice on Teklad Global Diet 2014 (Envigo Teklad, Madison, WI) (n = 2–3 per study) received a single IV, oral or intraperitoneal (IP) administration of compounds 1, 4, 5 or 6 at 1 mg/kg in 2:5:20:73 (v/v) DMSO:Tween 80:PEG-400:D5W dosed at 10 ml/kg. Serial blood samples were taken over 24h and frozen at −20°C until analysis. Pharmacokinetic parameters after IP or PO dosing were calculated by noncompartmental methods, while pharmacokinetic parameters after IV dosing were calculated by compartmental methods using WinNonlin (version 5.2, Certara USA Inc., St. Louis, MO). Mean parameters were determined from 1–3 separate studies. FaFg was determined as F/Fh (compound 6) or as the ratio of AUC after an oral dose to that after an IP dose (AUCoral/AUCip).

For a further data set, the target named is CSF1R (Homo sapiens, UniProt P07333). The data set can be described thus: CSF1R enzyme activity (TR-FRET binding displacement, kinase panel). The protocol: TR-FRET-based binding displacement studies using active site probes were used to assess kinome selectivity of inhibitor molecules.[54] The concentrations of components for each purified kinase were based on optimized conditions with ranges as follows: kinases (1.25–12.5 nM), Oregon Green-labeled fluorescent probes (2x KD of probe to the particular kinase; range of 1–200 nM; in-house), terbium anti-His or anti-GST antibody (0.5–2 nM). The reaction buffer was diluted to 1x using ddH2O and contained 1 mM DTT.
Compounds were typically tested from 0.0001 to 10 μM in 10x dilutions. Reactions were carried out in a 20 μL volume in 384-well plates by combining kinase, probe, antibody, and test compound and allowing the reaction to come to equilibrium (incubation of 2 h). TR-FRET was then measured on a PerkinElmer Envision plate reader (excitation at 340 nm; emission at 520 and 495 nm). Competition by the test compound versus the fluorescent probe for the ATP binding site of the kinase was quantified by calculating the IC50 value based on a four-parameter logistic curve fit.
For orientation: In TR-FRET formats the signal depends on donor and acceptor labels being close together.

Data set [5] is described as follows: Plasma stability in vitro. Format: in vitro ADME, mouse.
[6] abbreviates: CSF-induced mouse macrophage differentiation, mean from n ≥3 experiments, read-out: Mouse Mac EC50.
Where [7] appears, read: Mus musculus, adjusted for binding in 10% FBS, read-out: Cellular EC50 corrected for binding in 10% FBS.

Read-outs that look alike come from different tables or passages of the source. Bounds are passed on as bounds.

By EC50 is commonly meant the midpoint of the concentration-response curve. The Papp is a coefficient for how fast a substance crosses the barrier. The clearance is the volume of plasma or blood freed of the substance per unit of time. For orientation: IC50 means the concentration at which inhibition is half-maximal.

CSF1R, sequence (P07333 20-972): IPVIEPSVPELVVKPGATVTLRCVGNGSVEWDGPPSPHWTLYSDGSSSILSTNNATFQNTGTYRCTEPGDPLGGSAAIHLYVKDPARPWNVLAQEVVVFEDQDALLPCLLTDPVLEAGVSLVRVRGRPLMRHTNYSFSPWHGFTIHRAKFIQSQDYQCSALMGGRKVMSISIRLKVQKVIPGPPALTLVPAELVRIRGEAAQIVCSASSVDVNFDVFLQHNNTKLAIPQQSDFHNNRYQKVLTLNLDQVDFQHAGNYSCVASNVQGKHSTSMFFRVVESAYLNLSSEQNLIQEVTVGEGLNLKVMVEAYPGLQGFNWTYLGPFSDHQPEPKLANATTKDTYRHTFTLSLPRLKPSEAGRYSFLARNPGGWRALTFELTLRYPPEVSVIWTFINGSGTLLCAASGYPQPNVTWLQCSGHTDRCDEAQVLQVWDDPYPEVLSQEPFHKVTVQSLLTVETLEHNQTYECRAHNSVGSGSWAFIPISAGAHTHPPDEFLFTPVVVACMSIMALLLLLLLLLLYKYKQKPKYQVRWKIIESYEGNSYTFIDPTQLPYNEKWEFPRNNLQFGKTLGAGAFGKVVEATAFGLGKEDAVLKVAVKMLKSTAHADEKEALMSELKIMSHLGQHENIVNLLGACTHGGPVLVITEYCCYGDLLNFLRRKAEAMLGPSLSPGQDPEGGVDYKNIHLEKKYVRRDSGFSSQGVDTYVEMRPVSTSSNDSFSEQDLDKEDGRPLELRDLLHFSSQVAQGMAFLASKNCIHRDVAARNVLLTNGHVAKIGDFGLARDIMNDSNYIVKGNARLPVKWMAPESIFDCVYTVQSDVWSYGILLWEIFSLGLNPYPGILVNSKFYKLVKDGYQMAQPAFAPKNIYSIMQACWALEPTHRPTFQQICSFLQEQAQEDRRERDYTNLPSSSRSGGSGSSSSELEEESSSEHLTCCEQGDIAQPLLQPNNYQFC

In the case of `OCC1OC(OC2CCC(n3cc(Nc4nc(C5CCCCC5)cn5ncnc45)cn3)CC2)C(O)C(O)C1O` [Compound 10, (2S,3R,4S,5S,6R)-2-(((1r,4s)-4-(4-((6-cyclohexyl-[1,2,4]triazolo[1,5-a]pyrazin-8-yl)amino)-1H-pyrazol-1-yl)cyclohexyl)oxy)-6-(hydroxymethyl)tetrahydro-2H-pyran-3,4,5-triol], the “Prodrug levels in plasma after oral dosing” value (“Prodrug levels in plasma” for short) in data set [1] is “no measureable plasma levels”.

As to `O[C@H]1CC[C@H](n2cc(Nc3nc(C4CCCCC4)cn4ncnc34)cn2)CC1` [Compound 1, (1r,4r)-4-(4-((6-Cyclohexyl-[1,2,4]triazolo[1,5-a]pyrazin-8-yl)amino)-1H-pyrazol-1-yl)cyclohexanol], the EC50 in data set [2] (setting [6]) is 113 nM. Further, the EC50 in data set [2] (setting [7]) came to 0.022 µg/mL. Further, the Kp at 1 h in data set [3] (colon and plasma, other: per rectal (PR), PR 30 mg/kg, 1 h, read-out: colon:plasma ratio (unbound)) was 22. The Kp at 3 h in data set [3] (male, CD1, colon and plasma, PO 30 mg/kg, 3 h, read-out: colon:plasma ratio (unbound)) is 0.5. For the same compound, in data set [3] (PO 30 mg/kg, 3 h), the “Mean colon unbound Cmax” value is listed as 9 ng/g and the “colon:liver ratio (unbound)” value is given as 0.34 x. For the same compound, in data set [3] (PR 30 mg/kg, 1 h), the “Mean colon unbound Cmax” value worked out at 67 ng/g and the “colon:liver ratio (unbound)” value was determined as 7 x. In addition, the “Compound in the colon at the terminal time point” value in data set [3] (PR 30 mg/kg, 11 h) is “Lack of compound detection in the colon”. Further, in data set [3] (PR 30 mg/kg, unbound), the “1 h colon exposure versus cellular EC50” value is given as “exceeded the cellular EC50” and the “1 h plasma exposure exceeding cellular EC50” value was “did not”. Also, the Papp in “PAMPA permeability” was found to be 15.6 ×10⁻⁶ cm/s. In data set [4], the clearance was 75 mL/min/kg; the “Blood Clearance (unbound clearance, CLb/fub)” value came to 2500 mL/min/kg; the FaFg came out at 43%. The IC50 on CSF1R is < 10 nM.

Take `CC(C)(O)CCn1cc(Nc2nc(C3CCCCC3)cn3ncnc23)cn1` [Compound 5, 4-(4-((6-Cyclohexyl-[1,2,4]triazolo[1,5-a]pyrazin-8-yl)amino)-1H-pyrazol-1-yl)-2-methylbutan-2-ol]: the EC50 in data set [2] (setting [6]) was 104 nM. Moreover, the EC50 in data set [2] (setting [7]) stood at 0.021 µg/mL. The apparent permeability coefficient (Papp) in “PAMPA permeability” came to 8.7 ×10⁻⁶ cm/s. In addition, in data set [4], the clearance was 80 mL/min/kg; the “Blood Clearance (unbound clearance, CLb/fub)” value turned out to be 3280 mL/min/kg; the FaFg is reported as 32%. Also, the IC50 at CSF1R is < 10 nM.

As for `OCC1OC(OC2CCC(n3cc(Nc4nc(C5CCCCC5)cn5ncnc45)cn3)CC2)C(O)C(O)C1O` [Compound 9, (2R,3R,4S,5S,6R)-2-(((1r,4r)-4-(4-((6-Cyclohexyl-[1,2,4]triazolo[1,5-a]pyrazin-8-yl)amino)-1H-pyrazol-1-yl)cyclohexyl)oxy)-6-(hydroxymethyl)tetrahydro-2H-pyran-3,4,5-triol], the “Prodrug plasma concentration, fold lower than active parent 1” value in data set [1] is given as ~ 100 x.

On to `OCCn1cc(Nc2nc(C3CCCCC3)cn3ncnc23)cn1` [Compound 4, 2-(4-((6-Cyclohexyl-[1,2,4]triazolo[1,5-a]pyrazin-8-yl)amino)-1H-pyrazol-1-yl)ethanol], for which, in data set [2] (setting [6]), the EC50 was 245 nM. In addition, in data set [2] (setting [7]), the concentration giving a half-maximal response (EC50) was determined as 0.019 µg/mL. The same compound yielded an apparent permeability coefficient (Papp) in the data set “PAMPA permeability” of 14.1 ×10⁻⁶ cm/s. In data set [4], the clearance was 108 mL/min/kg; the “Blood Clearance (unbound clearance, CLb/fub)” value came out at 1700 mL/min/kg; the FaFg came to 18%. At CSF1R, the IC50 is < 10 nM.

As to `CN(C)CC(=O)OC1CCC(n2cc(Nc3nc(C4CCCCC4)cn4ncnc34)cn2)CC1` (stereo not drawn) [Compound 7, (1r,4r)-4-(4-((6-Cyclohexyl-[1,2,4]triazolo[1,5-a]pyrazin-8-yl)amino)-1H-pyrazol-1-yl)cyclohexyl 2-(dimethylamino)acetate], in data set [5], the Stability in plasma entry is given as “not stable in plasma”. In data set [1], the “Prodrug levels in plasma” value is given as “no prodrug levels were measurable in plasma” and the “Plasma versus colon levels of active parent 1 after oral prodrug” value was “significantly higher plasma versus colon drug levels”.

In the case of `CC(C)C(N)C(=O)OC1CCC(n2cc(Nc3nc(C4CCCCC4)cn4ncnc34)cn2)CC1` [Compound 8, (R)-(1r,4r)-4-(4-((6-Cyclohexyl-[1,2,4]triazolo[1,5-a]pyrazin-8-yl)amino)-1H-pyrazol-1-yl)cyclohexyl 2-amino-3-methylbutanoate], in data set [1], the “Prodrug plasma concentration, fold lower than active parent 1” value is reported as ~ 10 x and the “Plasma versus colon levels of active parent 1 after oral prodrug” value is listed as “significantly higher plasma versus colon drug levels”.

For `O=C(O)[C@H]1CC[C@H](n2cc(Nc3nc(C4CCCCC4)cn4ncnc34)cn2)CC1` [Compound 6], in data set [2] (setting [6]), the EC50 stood at 196 nM. Besides, the EC50 in data set [2] (setting [7]) stood at 0.042 µg/mL. Also, the Papp in the data set “PAMPA permeability” worked out at 14.6 ×10⁻⁶ cm/s. Besides, in data set [4], the clearance was 16.7 mL/min/kg; the “Blood Clearance (unbound clearance, CLb/fub)” value was 317 mL/min/kg; the FaFg is listed as 35%. Besides, on CSF1R, the IC50 is < 10 nM.

Consider `O=C(O)C1OC(OC2CCC(n3cc(Nc4nc(C5CCCCC5)cn5ncnc45)cn3)CC2)C(O)C(O)C1O` [Compound 11, (2S,3S,4S,5R,6R)-6-(((1r,4r)-4-(4-((6-Cyclohexyl-[1,2,4]triazolo[1,5-a]pyrazin-8-yl)amino)-1H-pyrazol-1-yl)cyclohexyl)oxy)-3,4,5-trihydroxytetrahydro-2H-pyran-2-carboxylic acid], for which the “Prodrug levels in plasma” value in data set [1] is recorded as “no measureable plasma levels”.

Source of the values: PMC6128612, “Prodrugs for colon-restricted delivery: Design, synthesis, and in vivo evaluation of colony stimulating factor 1 receptor (CSF1R) inhibitors” (PLoS ONE, 2018).
